# Laboratory results from patent US7282486B2, “Crystal forms of azithromycin” (Pfizer Inc, priority 2001, dated 2007).
# Key:
# [1] = Heating of form A: variable temperature powder X-ray diffraction (VT-PXRD) and TGA; assay type: physicochemical
# [2] = Dehydration/desolvation temperatures determined by DSC; assay type: physicochemical; settings: DSC analysis at 5° C./min from 30-300° C.
# Description: Dehydration/desolvation temperatures were determined by DSC with a heating rate of 5° C./min.
compound,measurement,setting,value
CCC1OC(=O)C(C)C(O[C@H]2C[C@@](C)(OC)[C@@H](O)C(C)O2)C(C)[C@@H](OC2OC(C)CC(N(C)C)[C@H]2O)C(C)(O)C[C@@H](C)CN(C)[C@H](C)[C@@H](O)[C@]1(C)O (stereo in doubt) [Form L],stability of form when cooled to ambient temperature,[1]; cooled to ambient temperature after heating form A to about 90° C.,rapidly reverts to form A
"CC[C@H]1OC(=O)[C@H](C)[C@@H](O[C@H]2C[C@@](C)(OC)[C@@H](O)[C@H](C)O2)[C@H](C)[C@@H](O[C@@H]2O[C@H](C)C[C@H](N(C)C)[C@H]2O)[C@](C)(O)C[C@@H](C)CN(C)[C@H](C)[C@@H](O)[C@]1(C)O [Form A, azithromycin dihydrate]",weight loss by TGA,[1]; at 90° C.,about 2.5 weight %
same,temperature of solid-state conversion of form A to form L,"[1]; heating, VT-PXRD",about 90 °C
"CCC1OC(=O)C(C)C(O[C@H]2C[C@@](C)(OC)[C@@H](O)C(C)O2)C(C)[C@@H](OC2OC(C)CC(N(C)C)[C@H]2O)[C@@](C)(O)C[C@@H](C)CN(C)[C@H](C)[C@@H](O)[C@]1(C)O (stereo partly shown) [Form D, azithromycin monohydrate monocyclohexane solvate]",broad endotherm (decomposition),[2],200-280 °C
